≈ marks a conversion by molar mass, not a printed value. Like-named read-outs stand apart in the source and are kept apart here.
Assays:
[1] = system: Aciento MDR; assay: Minimal inhibitory concentration (MIC), broth dilution
[2] = system: E. faecalis ATCC 29212; assay: as above
[3] = system: S. typhi clinical isolate; assay: as above; type: cell-based
[4] = system: S. typhi; assay: Biochemical analysis in S. typhi infected rats; type: in vivo
Protocol: The compounds 4h and 4j were dissolved in DMSO (dimethyl sulfoxide) then further dilutions were made by using sterile distilled water. The doses of both candidates were calculated according to the method given by Paget and Barnes[60]. Sterile distilled water, DEMSO, and investigated compounds (4h (1.9 and 3.8 mg/kg) and 4j (1.9 and 3.8 mg/kg)) were injected in a volume of 4 ml/kg[61]. The experiment lasts two weeks, the 1st week for induction of infection in the infected groups and the 2nd week for the administration of the compounds in all groups. […]
ALT and AST were determined[66] using commercial kits obtained from Diamond Diagnostics, Egypt.
Serum urea was determined by using the modified Berthelot–Searcy method. Serum creatinine activity was also assessed by using the application of Jaffe’s reaction.
Serum levels of the pro-inflammatory cytokine, TNF-α, were determined by the quantitative enzyme immunoassay (EIA) kit purchased from R&D Systems (USA) according to the method of Howard and Harada[69], while that of anti-inflammatory cytokine IL-10 was according to Croft et al.. […]

[5] = system: S. typhi; assay: H&E histological examination of liver and kidney, S. typhi infected rats; type: in vivo
Protocol: (§1) Rats were divided randomly into equal fifteen groups, each containing 9 rats as follows: • Group 1: Rats were kept on standard laboratory chow and water ad libitum to serve as a control. • Group 2: Rats have injected IP with sterile distilled water (4ml/kg) daily for one week to serve as a control. • Group 3: Rats have injected IP with DEMSO (dimethyl sulfoxide) (4 ml/kg) daily for one week to serve as a control. • Group 4: Rats have injected IP with 4h (1.9 mg/kg) daily for one week. • Group 5: Rats have injected IP with 4h (3.8 mg/kg) daily for one week. • Group 6: Rats have injected IP with 4i (1.9 mg/kg) daily for one week. • Group 7: Rats have injected IP with 4i (3.8 mg/kg) daily for one week. • Group 8: Rats were infected by a single IM injection of S. aureus strain [1.0 ml) 1 × 10^7) colony-forming units]. • Group 9: Rats have injected IP with 4h (1.9 mg/kg) daily for one week on the 7th day after induction of infection by a single IM injection of S. aureus strain [1.0 ml (1 × 10^7) colony-forming units. • Group 10: Rats have injected IP with 4h (3.8 mg/kg) daily for one week on the 7th day after induction of infection by a single IM injection of S. aureus strain [1.0 ml (1 × 10^7) colony-forming units]. • Group 11: Rats were infected by a single IM injection of S. typhi strain [1.0 ml (1 × 10^7) colony forming units). • Group 12: Rats have injected IP with 4h (1.9 mg/kg) daily for one week. on the 7th day after induction of infection by a single IM injection of S. typhi strain [1.0 ml (1 × 10^7) colony-forming units]. • Group 13: Rats have injected IP with 4h (3.8 mg/kg) daily for one week on the 7th day after infection by a single IM injection of S. typhi strain [1.0 ml (1 × 10^7) colony-forming units]. • Group 14: Rats have injected IP with 4i (1.9 mg/kg) daily for one week. on the 7th day after induction of infection by a single IM injection of S. typhi strain [1.0 ml (1 × 10^7) colony-forming units]. • Group 15: Rats have injected IP with 4i (3.8 mg/kg) daily for one week. on the 7th day after induction of infection by a single IM injection of Salmonella strain [1.0 ml (1 × 10^7) colony-forming units].
(§2) At the end of the experiment, the animals were euthanized through cervical dislocation. After that, the liver and kidney were dissected for histological study. The procedure for histological preparations was described by Bancroft and Stevens[73]. Briefly, liver and kidney tissues were sliced to 3–4 mm thick, fixed in 10% neutral buffered formalin (10% NBF), dehydrated in graded concentrations of ethanol, cleared in xylene, and embedded in paraffin. The paraffin blocks were sectioned with a microtome at (4–6 μm) thickness and dyed with H & E stain to study the general tissue structure.

[6] = system: A. baumanii ATCC 19606; assay: Minimal inhibitory concentration (MIC), broth dilution
[7] = H&E histological examination of liver and kidney, uninfected treated rats; type: in vivo; conditions: for liver histological structure (H&E): 1.9 and 3.8 mg/kg IP daily for one week; for kidney histological structure (H&E): low dose and high dose (1.9 and 3.8 mg/kg IP)
Protocol: as §1, §2

[8] = system: Acientobacter sensitive; assay: Minimal inhibitory concentration (MIC), broth dilution
[9] = system: C. albicans MTCC183; assay: as above; type: cell-based
Text: In vitro evaluation for antifungal activities regarding target compounds (4a–j) as well as reference drug, was done against C. albicans MTCC183 through the zone inhibition technique using well diffusion agar assay in addition to MIC.

[10] = system: S. aureus ATCC 6538; assay: as above
[11] = system: E. faecalis, Acientobacter, P. auriginosa, S. aureus, S. typhi, E. coli, C. albicans; assay: Average MIC over the nine tested microbial species (SAR); type: cell-based; conditions: for antimicrobial activity (SAR grading): based on MIC average values
Text: Herein, we aimed to study the structure-antimicrobial activity relationship of the newly synthesised N'-benzylidene-3,4-dimethoxybenzohydrazide derivatives based on MIC average values[51]^,[52] as represented in the supplementary data (Table SI1). Thereby, the changes in their antimicrobial potential and spectrum upon structural modifications could be unveiled, thus offering clues for structural changes that are capable of increasing the antimicrobial potential.

[12] = system: P. aeruginosa ATCC10145; assay: Minimal inhibitory concentration (MIC), broth dilution
[13] = first dose (1.9 mg/kg IP daily for one week)
[14] = second dose (3.8 mg/kg IP daily for one week)

Compound	renal and liver functions, oxidative stress and inflammatory markers (urea, creatinine, ALT, AST, GSH, MDA, TNF-α, IL-10) [4, 13]	renal and liver functions, oxidative stress and inflammatory markers (urea, creatinine, ALT, AST, GSH, MDA, TNF-α, IL-10) [4, 14]	kidney pathological changes (H&E) ([5]; high dose (3.8 mg/kg))	liver pathological changes (H&E) ([5]; high dose (3.8 mg/kg))	kidney pathological changes (H&E) ([5]; low dose (1.9 mg/kg))	liver pathological changes (H&E) ([5]; low dose (1.9 mg/kg))	liver histological structure (H&E) [7]	kidney histological structure (H&E) [7]	antimicrobial activity (SAR grading) [11]	other results
COc1ccc(C(=O)NN=Cc2ccc3ccccc3n2)cc1OC [Compound 4i, N'-(quinolin-2-ylmethylene)-3,4-dimethoxybenzohydrazide]	normalisation of urea, ALT, and AST	returning of urea, creatinine, ALT, and AST	marked improved renal tissue	marked improvement in the pathological changes	improved pathological changes	improved pathological changes	normal histological structure	histological structure similar to those of the control groups	weaker antimicrobial potential	MIC ([1]; Acinetobacter baumannii): 373 µM (≈ 125 µg/mL); MIC ([2]; Enterococcus faecalis, ATCC29212): 93.4 µM (≈ 31.3 µg/mL); MIC ([3]; Salmonella enterica, TYPHI): 93.4 µM (≈ 31.3 µg/mL); MIC ([6]; Acinetobacter baumannii, ATCC19606): 11.6 µM (≈ 3.9 µg/mL); MIC ([8]; Acinetobacter baumannii): 46.5 µM (≈ 15.6 µg/mL); MIC ([9]; Candida albicans, MTCC183): 23.3 µM (≈ 7.81 µg/mL); MIC ([10]; Staphylococcus aureus, ATCC6538): 46.5 µM (≈ 15.6 µg/mL); MIC ([11]; read-out: Average MIC): 99.7 µM (≈ 33.4 µg/mL); MIC ([12]; Pseudomonas aeruginosa, ATCC10145): 186 µM (≈ 62.5 µg/mL)
N'-((3a,7a-dihydro-1H-indol-3-yl)methylene)-3,4-dimethoxybenzohydrazide [Compound 4h]	significant improvement in all measured parameters	returning of urea, creatinine, AST, and TNF-α to normal levels	marked improved renal tissue	marked improvement in the pathological changes	improved pathological changes	improved pathological changes	normal histological structure	histological structure similar to those of the control groups	weaker antimicrobial potential	MIC ([1]; Aciento MDR (AM)): 193.40 µM; MIC ([2]; E. faecalis (EF)): 96.87 µM; MIC ([3]; S. typhi (ST)): 12.07 µM; MIC ([6]; Acientobacter ATCC 19606 (A A)): 48.28 µM; MIC ([8]; Acientobacter sensitive (AS)): 24.17 µM; MIC ([9]; C. albicans (CA), read-out: MIC): 386.80 µM; MIC ([10]; S. aureus (SA)): 5.88 µM; Average MIC ([11]; average over nine microbial species): 112.13 µM; MIC ([12]; P. auriginosa (PA)): 193.40 µM

— PMC9037180, “Ligand-based design and synthesis of N'-Benzylidene-3,4-dimethoxybenzohydrazide derivatives as potential antimicrobial agents; evaluation by in vitro, in vivo, and in silico approaches with SAR studies” (Journal of Enzyme Inhibition and Medicinal Chemistry, 2022)
